Source: US5786367A, “Cyclic amide derivatives” (Otsuka Pharmaceutical Co., Ltd., priority 1994, dated 1998)
Like-named read-outs stand apart in the source and are kept apart here.

Key:
skin erythema = assay: Activity for inhibiting skin erythema caused by ultraviolet radiation; assay type: in vivo, albino guinea pig (Hartley strain, female, 7-8 week age); conditions: for inhibition in vivo at 3 %: Cavia porcellus, UV 1.3-1.5 mW/cm^2 for 30 minutes, measured 24 hours later; for 50% inhibitory concentration (IC50) for inhibiting the skin erythema: three concentrations within 0.1 to 10%
Procedure: The hairs covering in the back of albino guinea pig (Hartley strain, female, 7-8 week age) were shaved by using an electric hair clippers and a shaver. In the next day, the guinea pig was fixed in Bowlman's cage, then a light shield tape (adhesive plaster for patch test), having 4 round holes of 1.5 cm in diameter was adhered on the hair clipped portion so as to provide 4 sites (round holes) to be exposed to the ultraviolet rays. […] Each one of the test sample solutions was prepared by dissolving each test compounds in three kinds of concentrations within 0.1 to 10%, and applied.

[1] = system: skin homogenate of guinea pig; assay: Activity for inhibiting the formation of lipid peroxides (ultraviolet-B irradiated skin homogenate, TBA method); assay type: biochemical, albino guinea pig (Hartley strain, female); conditions: test compound 10^-4 M; UV 9.5 mW/cm^2, 60 minutes
Procedure: The activity for inhibiting the formation of lipid peroxides which are increasingly formed by exposed to the ultraviolet-B radiation to the skin homogenate of guinea pig was determined by a procedure of thiobarbituric acid method (TBA method).
The activity for inhibiting the formation of lipid peroxides can be evaluated by degree of decreasing the optical absorbance of the condensate of thus formed malondialdehyde with thiobarbituric acid, by adding a test sample of the cyclic amide derivative of the present invention to the homogenate.
That is, the hairs covering in the back of an albino guinea pig (Hartley strain, female) were clipped by using an electric hair clippers under anesthesia. After the enucleation of the hair clipped portion of the skin, the subcutaneous tissue of this skin was removed in cold physiological saline. Distilled water in an amount of 9 times by weight of the skin tissue was added to this skin subcutaneous tissue, then was subjected to homogenation and centrifugation (600 g, for 5 minutes) to obtain the supernatant liquid. 5 Microliters each of test sample solutions of various concentrations was added to 0.5 ml each of the supernatant liquid, then the ultraviolet ray in the intensity of 9.5 mW/cm^2 was irradiated for 60 minutes by using fluorescent lamps (TOSHIBA FL-20SE, manufactured by Toshiba Corporation) as a light source. As to the reference sample solution, the solvent for dissolution of the test compound was used in place of the test sample solution. After ultraviolet radiation, the amount of lipid peroxide being formed in the sample solution (TBA value) was measured by TBA method (cf. Analytical Biochemistry, 1979, Vol. 95, pp. 351-358), and the inhibition rate of lipid peroxide formation shown by the test sample was calculated by the following formula: [formula]

[2] = system: lens samples obtained from rat; assay: Activity for preventing the lens opacity (UV-irradiated cultured lens); assay type: cell-based, rat (Wistar strain, male, 6-10 week age); conditions: 1 h, read-out: Rate of the activity for preventing lens opacity
Procedure: The lens samples obtained from rat (Wistar strain, male, 6-10 week age) were placed on 24-well plate, and were cultured in DEMEM (Dulbecco's modified Eagle's medium manufactured by Nissui Pharmaceutical Co., Ltd.) at 37° C. overnight, a 5% CO2 environment was used. Under dissecting microscope observation, the lens samples having transparency were only selected to use the test. Thus selected lens samples were transferred to midium (1 ml) in which the test compound was dissolved. (As to the reference test, the medium without containing the test compound was used.) The ultraviolet rays in the intensity of 8.8 mW/cm^2 was irradiated for 60 minutes by using a fluorescent lamp (TOSHIBA FL-20SE) to the lens samples. After the irradiation, the medium was replaced to new medium containing the test compound and further cultured overnight. The medium without the test compound was replaced everyday during 3 days. By using a dissecting microscope, opacity of the lens samples were observed. The degrees of opacity of the lens samples was determined by deviding the field of vision into 8 fields as follows: Score 0: transparent; Score 1: some loss of transparency; and Score 2: completely opaque. Rate of activity for preventing the lens opacity was calculated from the following formula: [formula]

[3] = 3% concentration of test compound, 10 μl topical, read-out: Rate of activity for inhibiting the skin erythema
[4] = test compound 1 x 10^-4 M, UV 8.8 mW/cm^2, 60 minutes

Compound	inhibition in vivo at 3 % (skin erythema; [3]) [%]	50% inhibitory concentration (IC50) for inhibiting the skin erythema (skin erythema; topical) [concentration in %]	Inhibition rate of lipid peroxide formation [1] [%]	inhibition at 100 µM [2, 4] [%]	further results
C=CCc1cc2c(c(CC=C)c1O)CCC(=O)N2C [Example 40]	23	5.6	84		
C=CCc1cc2c(c(CC=C)c1O)CCC(=O)N2CC(C)C [Example 41]	57	2.0	96	55	
C=CCc1cc2c(c(CC=C)c1O)CCC(=O)N2CC1CCCCC1 [Example 44]	63	1.6	100		
C=CCc1cc2c(c(CC=C)c1O)CCC(=O)N2C/C=C(\C)CCC=C(C)C [Example 48]	37		95		
C=CCOc1cccc(CN2C(=O)CCc3c2cc(CC=C)c(O)c3CC=C)c1 [Example 50]	36		89		
C=CCc1cc2c(c(CC=C)c1O)CCC(=O)N2c1ccc(OC)c(OC)c1 [Example 60]	27		83		
C=CCc1c(O)ccc2c1CCC(=O)N2CCCCCCCCCCO [Example 63]	35	6.5	81		
C=CCc1cc2c(c(CC=C)c1O)CCC(=O)N2CCCN.Cl [Example 67, 1-(3-aminopropyl)-5,7-diallyl-3,4-dihydro-6-hydroxy-2(1H)-quinolinone hydrochloride]	31		75	40	
C=CCc1cc2c(c(CC=C)c1O)CCC(=O)N2CCCNC(N)=O [Example 68, 5,7-diallyl-3,4-dihydro-6-hydroxy-1-(3-ureidopropyl)-2(1H)-quinolinone]	43		68		
C=CCc1cc2c(c(CC=C)c1O)CCC(=O)N2CC(=O)O [Example 76, 1-(carboxymethyl)-5,7-diallyl-3,4-dihydro-6-hydroxy-2(1H)-quinolinone]	50	3.1	68		
C=CCc1cc2c(c(CC=C)c1O)CCC(=O)N2C(C)C [Example 98]				45	
C=CCc1cc2c(c(CC=C)c1O)CCC(=O)N2CCCCCCCC [Example 101]	37			55	
C=CCc1cc2c(c(CC=C)c1O)CCC(=O)N2CCOC(C)=O [Example 103, 1-(2-Acetyloxyethyl)-5,7-diallyl-3,4-dihydro-6-hydroxy-2(1H)-quinolinone]				57	
C=CCc1cc2c(c(CC=C)c1O)CCC(=O)N2CCO [Example 109, 5,7-diallyl-3,4-dihydro-6-hydroxy-1-(2-hydroxyethyl)-2(1H)-quinolinone]				66	
C=CCc1cc2c(c(CC=C)c1O)CCC(=O)N2C(C)C(=O)O (stereo not drawn) [Example 115, Sodium 2-(5,7-Diallyl-6-hydroxy-1,2,3,4-tetrahydro-2-oxoquinolin-1-yl)propionate]					inhibition at 100 µM [2]: 63%; inhibition in vivo at 3 % (skin erythema; topical, 24 h, read-out: Rate of activity for inhibiting the skin erythema, 3% concentration of test compound, 10 μl topical): 33%
O=C1O[C@H]([C@@H](O)CO)C(O)=C1O [Vitamin C, reference compound]				-11	inhibition at 1000 µM ([2]; test compound 10 x 10^-4 M, UV 8.8 mW/cm^2, 60 minutes): 84%
